Measured values as given in patent US20240425464A1, “Substituted Monohydrazides as Potent Antifungal Agents” (University of Kentucky Research Foundation, priority 2023, published 2024).
In brackets after ≈: the same amount, converted by molar mass. Read-outs that look alike come from different tables or passages of the source.

Tests used:
[1] = system: panel of ten C. auris strains (AR Bank #381-390); experiment: MIC determination, summary over the C. auris panel; type: cell-based, Candida auris; conditions: Candidozyma auris
Method: (§1) The antifungal agent amphotericin B (AmB) was purchased from VWR (Radnor PA, USA). AmB was dissolved in DMSO at a final concentration of 5 mg/mL and was stored at −20° C., protected from light. Candida albicans American Type Culture Collection (ATCC) 10231 (strain A), C. albicans ATCC 64124 (B), and C. albicans ATCC MYA-2876 (C) were obtained from Utah State University. C. albicans ATCC 90819 (D), C. albicans ATCC MYA-2310 (E), C. albicans ATCC MYA-1237 (F), C. albicans ATCC MYA-1003 (G), Candida glabrata ATCC 2001 (H), Candida krusei ATCC 6258 (I), Candida parapsilosis ATCC 22019 (J), Cryptococcus neoformans ATCC MYA-895 (M), Aspergillus terreus ATCC MYA-3633 (N), and Aspergillus flavus ATCC MYA-3631 (0) were obtained from the American Type Culture Collection (ATCC; Manassas, VA, USA). Aspergillus nidulans ATCC 38163 (P) was obtained from University of Kentucky. Clinically derived Aspergillus fumigatus NRRL 163 (Q), A. fumigatus NRRL 5109 (R), and A. fumigatus NRRL 6113 (S) were obtained from Northern Regional Research Laboratory (NRRL). Candida auris 384 (K), C. auris 390 (L), and fungal strains 381-400 (including 10 C. auris (AR Bank #381-390), 3 Candida duobushaemulonii (AR Bank #391, AR Bank #392, and AR Bank #394), 2 Candida haemulonii (AR Bank #393 and AR Bank #395), 1 Kodameae ohmeri (AR Bank #396), 1 C. krusei (AR Bank #397), 1 Candida lusitaniae (AR Bank #398), and 2 Saccharomyces cerevisiae strains (AR Bank #399 and AR Bank #400)) were part of a larger fungal library from the AR Bank maintained by the Centers for Disease Control and Prevention (CDC; Atlanta, GA, USA). Filamentous fungi and yeasts were cultivated at 35° C. in RPMI 1640 medium (with L-glutamine, without sodium bicarbonate, Sigma-Aldrich, St. Louis, MO) buffered to a pH of 7.0 with 0.165 M morpholinepropanesulfonic acid (MOPS) buffer (Sigma-Aldrich). For cytotoxicity assays, HepG2 and the mouse macrophage cell line J774A.1 were obtained from University of Kentucky. The human embryonic kidney cell line, HEK-293, was bought from the ATCC. Mammalian cells were grown in Dulbecco's Modified Eagle's Medium (DMEM) (from VWR) with 10% fetal bovine serum (FBS) (from VWR) and 1% Pen/Strep (from ATCC). Cell lines were cultured at 37° C. with 5% CO2 and passaged by trypsinization with 0.05% trypsin: 0.53 mM EDTA (from Sigma-Aldrich).
(§2) From the actively growing yeast culture, 100 µL were then transferred to 900 μL of RPMI 1640 medium and re-adjusted to achieve OD600 of 0.12 (˜1×10^6 CFU/mL). The cell suspension was further diluted to achieve 1:100 in RPMI 1640 medium.

[2] = system: HepG2 cells; experiment: In vitro cytotoxicity assay (resazurin); type: cell-based
Method: The antifungal agent amphotericin B (AmB) was purchased from VWR (Radnor PA, USA). AmB was dissolved in DMSO at a final concentration of 5 mg/mL and was stored at −20° C., protected from light. […] For cytotoxicity assays, HepG2 and the mouse macrophage cell line J774A.1 were obtained from University of Kentucky. […] Mammalian cells were grown in Dulbecco's Modified Eagle's Medium (DMEM) (from VWR) with 10% fetal bovine serum (FBS) (from VWR) and 1% Pen/Strep (from ATCC). Cell lines were cultured at 37° C. with 5% CO2 and passaged by trypsinization with 0.05% trypsin: 0.53 mM EDTA (from Sigma-Aldrich).
Cytotoxicity assays were performed as previously described with slight modifications.^3 HepG2, J774A.1, and HEK-293 cells were first thawed from frozen stocks kept in liquid N2 and grown in Dulbecco's modified Eagles's medium (DMEM) containing 10% fetal bovine serum (FBS) and 1% Pen/Strep. […] The 96-well plates were incubated 37° C. with 5% CO2 overnight. […] The medium in the 96-well plates containing the cells was aspirated and replaced by fresh DMEM (100 μL). […] The 96-well plates were further incubated for 24 h at 37° C. with 5% CO2 overnight. To evaluate cell survival, each well was treated with 10 μL (2 mM) of resazurin sodium salt (Sigma-Aldrich, St. Louis, MO, USA) and was incubated for another 6 h. Metabolically active cells can convert resazurin to the highly fluorescent dye, resorufin, and be detected at ?560 excitation and λ590 emission using a SpectraMax M5 plate reader (Molecular Devices, San Jose, CA, USA). Triton X-100® (1%, v/v) was used as positive control; the negative control consisted of cells treated with the delivery vehicle (0.05% DMSO), and the blank control was only the culture medium with 0.05% DMSO without cells. The experiments were performed in quadruplicate.

[3] = system: Candida duobushaemulonii AR Bank #392; experiment: MIC determination by in vitro antifungal assay; type: cell-based
Method: as §1, §2

[4] = system: Candida duobushaemulonii AR Bank #394; experiment: MIC determination by in vitro antifungal assay; type: cell-based
Method: as §1, §2

[5] = system: Candida haemulonii AR Bank #393; experiment: MIC determination by in vitro antifungal assay; type: cell-based
Method: as §1, §2

[6] = system: Candida haemulonii AR Bank #395; experiment: MIC determination by in vitro antifungal assay; type: cell-based
Method: as §1, §2

[7] = system: Candida krusei AR Bank #397; experiment: MIC determination by in vitro antifungal assay; type: cell-based; conditions: Candida strain AR Bank #397
Method: as §1, §2

[8] = system: Candida lusitaniae AR Bank #398; experiment: MIC determination by in vitro antifungal assay; type: cell-based; conditions: Candida strain AR Bank #398
Method: as §1, §2

[9] = system: Kodameae ohmeri AR Bank #396; experiment: MIC determination by in vitro antifungal assay; type: cell-based; conditions: strain AR Bank #396
Method: as §1, §2

[10] = system: Saccharomyces cerevisiae AR Bank #399; experiment: MIC determination by in vitro antifungal assay; type: cell-based
Method: as §1, §2

[11] = system: ten other fungal strains (AR Bank #391-400); experiment: MIC determination, summary over ten additional fungal strains; type: cell-based; conditions: read-out: MIC range
Method: as §1, §2

[12] = system: Candida duobushaemulonii AR Bank #391; experiment: MIC determination by in vitro antifungal assay; type: cell-based
Method: as §1, §2

[13] = against all ten C. auris strains tested (AR Bank #381-390)
[14] = all C. auris strains tested with the exception of AR Bank #390
[15] = Candidozyma duobushaemuli, read-out: MIC
[16] = Candidozyma haemuli, read-out: MIC

## O=C(NNc1ccc(F)cc1)c1cccc(F)n1 [Compound 5d]
[1]; [13]
  MIC: 0.06 to 1.95 µg/mL (≈ 0.241 to 7.82 µM)

## O=C(NNc1ccc(F)cc1F)c1cccc(F)n1 [Compound 5g]
[1]; [13]
  MIC: 0.12 to 7.8 µg/mL (≈ 0.449 to 29.2 µM)

## O=C(NNc1ccc(F)cc1)c1cccc(Br)n1 [Compound 6d]
[1]; [13]
  MIC: 0.12 to 7.8 µg/mL (≈ 0.387 to 25.2 µM)

## O=C(NNc1ccc(F)cc1)c1ncc(F)cc1F [Compound 7d]
[1]; [13]
  MIC: 0.12 to 7.8 µg/mL (≈ 0.449 to 29.2 µM)

## COc1ccc(NNC(=O)c2ncc(F)cc2F)cc1 [Compound 7f]
[1]; [14]
  MIC: 0.49 to 1.95 µg/mL (≈ 1.75 to 6.98 µM)

## O=C(NNc1ccc(F)cc1F)c1ncc(F)cc1F [Compound 7g]
[1]; [13]
  MIC: 0.12 to 7.8 µg/mL (≈ 0.421 to 27.3 µM)

## O=C(NNc1ccc(F)cc1)c1nc(F)ccc1F [Compound 8d]
[1]; [13]
  MIC: 0.06 to 1.95 µg/mL (≈ 0.225 to 7.3 µM)

## COc1ccc(NNC(=O)c2nc(F)ccc2F)cc1 [Compound 8f]
[1]; [14]
  MIC: 0.49 to 1.95 µg/mL (≈ 1.75 to 6.98 µM)

## O=C(NNc1ccc(F)cc1F)c1nc(F)ccc1F [Compound 8g]
[1]; [14]
  MIC: 0.49 to 1.95 µg/mL (≈ 1.72 to 6.84 µM)

## O=C(NNc1cccc(F)c1)c1cnccn1 [Compound 9a]
[2]; at 31.3 j·tg mL^−1
  cell survival: 94%

## COc1cccc(NNC(=O)c2cnccn2)c1 [Compound 9c]
[3]; [15]
  MIC: 0.98 µg/mL (≈ 4.01 µM)
[4]; [15]
  MIC: 1.95 µg/mL (≈ 7.98 µM)
[5]; [16]
  MIC: 0.49 µg/mL (≈ 2.01 µM)
[6]; [16]
  MIC: 0.49 µg/mL (≈ 2.01 µM)
[7]; Pichia kudriavzevii, read-out: MIC
  MIC: 0.49 µg/mL (≈ 2.01 µM)
[8]; Clavispora lusitaniae, read-out: MIC
  MIC: 1.95 µg/mL (≈ 7.98 µM)
[9]; read-out: MIC
  MIC: 0.49 µg/mL (≈ 2.01 µM)
[10]; read-out: MIC
  MIC: 7.8 µg/mL (≈ 31.9 µM)
[2]; up to 31.3 j·tg mL^−1, 24 h
  toxicity: no toxicity
[1]; [13]
  MIC: 0.12 to 7.8 µg/mL (≈ 0.491 to 31.9 µM)
[11]
  MIC: 0.06 to 7.8 µg/mL (≈ 0.246 to 31.9 µM)

## O=C(NNc1ccc(Cl)cc1)c1cnccn1 [Compound 9e]
[12]
  MIC: 1.95 μg/mL^−1
[3]
  MIC: 1.95 μg/mL^−1
[4]
  MIC: 1.95 μg/mL^−1
[5]
  MIC: 1.95 μg/mL^−1
[6]
  MIC: 3.9 μg/mL^−1
[7]
  MIC: 1.9 μg/mL^−1
[8]
  MIC: 3.9 μg/mL^−1
[9]
  MIC: 1.95 μg/mL^−1
[10]
  MIC: 3.9 μg/mL^−1
